Source: article PMC12480552 (Scientific Reports, 2025)
Several values for one entry are separate records, joined by “and”; a condition that tells them apart may be missing. Equal entries are not always repeated. Where two headings read alike, the source gives them in different places. Values belong to the molecule of their own block, whether it stands above or below them.

Experiments:
[1] = MALDI MSI of brain sections, mouse model of brain metastasis (MDA231-BrM2-831); assay type: in vivo, NCr nude mice
From the text: A luciferase-transfected human breast adenocarcinoma cell line (MDA 231-BRM2-831) was used to generate a metastatic brain tumor model in female athymic nude mice. […] NCr nude mice (strain: CrTac: NCr-Foxn1^nu; female; 5-7 weeks old; Taconic Biosciences (Germantown, NY)) were used for these studies. A power analysis was completed by a statistician to determine the appropriate sample sizes for each group to measure a statistically significant. […] Control mice (n = 10) underwent a sham IC procedure (needle insertion into the ventricle without cell injection. All mice were monitored for tumor development by bioluminescence imaging (BLI) approximately once weekly for ~ 45 days, beginning 1 h after cell injection. In vivo BLI was performed at ~ 10 min post-luciferin injection (corresponding to the peak bioluminescent signal) using an IVIS Spectrum-CT system (PerkinElmer, Waltham, MA). Imaging parameters were set to automatic exposure in the Living Image software, while the binning (8) and aperture (open f-stop) remained at the default settings for all BLI acquisitions. The imaging frequency was increased to twice weekly for mice that developed brain metastases (BMs) as indicated by increased bioluminescence in the cranial region. […] The exact tumor size was not measured as an endpoint of this study. […] Two hours after the final dose, mice were euthanized by CO2 asphyxiation. At necropsy, a terminal blood sample was collected via cardia puncture, and the brains were harvested and snap-frozen by floating on liquid nitrogen. […] From each plane, serial tissue sections were collected for MALDI MSI and for H&E staining, and immunohistochemistry (IHC) staining. Tissue trimmings from between each plane were collected, homogenized, and submitted for bioanalysis in addition to the terminal plasma samples. For the mouse metastases study, tissue sections were collected from five horizontal tissue planes starting from roughly 1 mm from the top of the tissue, and each subsequent tissue plane was separated by roughly 1 mm. […] For MALDI MSI analysis, sections were thaw-mounted onto indium tin oxide-coated slides (Delta Technologies, Ltd, Loveland, CO). For H&E and IHC analyses, tissue sections were collected onto superfrost glass slides (Fisher Scientific, Waltham, MA). Brain tissue trimmings from between each of the horizontal planes were pooled and collected into a pre-weighed vial for homogenization and LC-MS/MS bioanalysis (described in detail later). […] Arraymold, Ogden, UT). […] DMSO: […] […] Ion images were loaded into […] […] Statistical significance was set at p < 0.05.

human P-gp = conditions: MDCKII cells overexpressing human P-gp; cited from earlier work
[2] = MALDI MSI of brain sections, biodistribution in healthy nonhuman primates; conditions: for concentration at 4 h: male, rhesus monkey, oral, 6 mg/kg
Protocol: Animals were randomized using the GSK Randomization App 2.0, which is an internal software tool that uses the ‘sample’ function in R to randomly shuffle animal IDs, then assigns them to treatment groups to ensure unbiased allocation.
Before each dose, animals were lightly sedated with an intramuscular injection of ketamine (5–10 mg/kg), and a blood sample was drawn. […] NHPs were euthanized by administering an overdose of injected sodium pentobarbital IV (150–200 mg/kg) and confirmed by thoracotomy and exsanguination. Terminal plasma, cerebrospinal fluid, and brain tissue were collected at necropsy. […] The brain was cut into six roughly 1-cm thick coronal segments before snap-freezing by floating on liquid nitrogen. The right hemispheres of the four interior coronal brain segments were cryosectioned and analyzed by matrix-assisted laser desorption/ionization mass spectrometry imaging (MALDI MSI) to quantitatively assess the tissue distribution of the dosed compounds[40]–[43]. After MALDI MSI analysis, tissue sections were stained with hematoxylin and eosin (H&E) for correlation of ion images with underlying tissue histology.
For both the nonhuman primate (NHP) and mouse metastases model studies, brain tissue sections of 6-µm thickness were prepared on a Leica CM1950 cryostat (Leica Biosystems, Danvers, MA). For the NHP study, tissue sections were collected from four of the coronal brain segments from each animal. From each coronal segment, three tissue sections were collected for MALDI MSI, one section for hematoxylin and eosin (H&E) staining, and roughly 30 sections were collected into a pre-weighed vial for homogenization and liquid chromatography–tandem mass spectrometry (LC-MS/MS) bioanalysis. The three sections for MALDI MSI were thaw-mounted onto double-width indium tin oxide–coated slides (BigSlides; Bruker Daltonics, Billerica, MA) that had been pretreated with a poly-L-lysine solution to improve tissue adherence. The section for H&E staining was thaw-mounted onto a standard double-width glass microscope slide.
A gelatin cast of the mimetic model was prepared by pipetting a warmed (50 °C) 15% gelatin solution into a tissue microarray mold (Arraymold kit C, 4 mm, 15 cores; Arraymold, Ogden, UT). The gelatin cast was then frozen overnight at (− 20 °C). Bulk homogenate of control rat brain tissue was prepared using an Omni Bead Ruptor Elite bead mill homogenizer (Omni International, Kennesaw, GA). […] The gelatin cast was warmed to room temperature, and the spiked homogenates were pipetted into each of the individual wells. The cast and homogenate were then frozen by floating on liquid nitrogen and stored at − 80 °C. Cryosections (6-µm thickness) of the mimetic tissue model were then collected on the same slide as the sample tissue to be quantified.
Slides were coated with a TM Sprayer (HTX Technologies, Chapel Hill, NC) using the following parameters: 0.1-mL/min flowrate, 70 °C, 3-mm track spacing with CC pattern, and 8 passes.
MALDI MSI was performed on either a Bruker ScimaX (7T) or a Bruker SolariX (7T) FT-ICR mass spectrometer. […] Both narrowband and CASI windows were centered between parent and internal standard m/z. The small laser focus was used with 200 laser shots per position, and the laser power was adjusted in accordance with a quality control sample acquired just before initiating the imaging sequence.
After MALDI MSI acquisition, slides were immersed in 100% ethanol for 5 min to remove the MALDI matrix. Slides were then stained with H&E and digitally scanned. Ion images were loaded into flexImaging (Bruker Daltonics), the post–MALDI H&E image was coregistered, and key regions of interest (ROIs) for the tissue and mimetic model were drawn. […] This stipulation was implemented to avoid internal standard normalization of noise, which can introduce artifactual distributions.

[3] = oral dosing in NHPs; ref data not reported; cited from earlier work
[4] = BM mice (niraparib n = 4, olaparib n = 3), oral once daily 5 days, niraparib 35 mg/kg or olaparib 50 mg/kg, 2 h after final dose, LOD 70 ng/g niraparib, 170 ng/g olaparib

Compound: O=C(c1cc(Cc2n[nH]c(=O)c3ccccc23)ccc1F)N1CCN(C(=O)C2CC2)CC1 [Olaparib]
MALDI MSI Brain sections, mean (SD) [1, 4]: < LOD | MALDI MSI Brain tumors, mean (SD) [1, 4]: < LOD | MALDI MSI Brain sections, mean (SD) ([1]; No BM mice (n = 3), oral once daily 5 days, niraparib 35 mg/kg or olaparib 50 mg/kg, 2 h after final dose, LOD 70 ng/g niraparib, 170 ng/g olaparib): < LOD | P-gp substrate status (human P-gp): substrates for P-gp

MALDI MSI Brain sections, mean (SD) ([2]; healthy rhesus macaques, individual animals, oral once daily 5 days, niraparib 6 mg/kg (4 h after last dose), olaparib 10 mg/kg (2–2.5 h), total concentration, LOD 20 ng/g niraparib, 70 ng/g olaparib): 283 (69) ng/g and 684 (189) ng/g | concentration at 4 h ([2]; brain (coronal Region 1 sections), MALDI MSI Mean Conc. by brain region, NHP-1, Region 1, 3 sections, Fig. 1B): 268 ng/g | concentration at 4 h ([2]; brain (coronal Region 1 sections), MALDI MSI Mean Conc. by brain region, NHP-2, Region 1, 3 sections, Fig. 1B): 524 ng/g | concentration at 4 h ([2]; brain (coronal Region 2 sections), MALDI MSI Mean Conc. by brain region, NHP-1, Region 2, 3 sections, Fig. 1B): 287 ng/g | concentration at 4 h ([2]; brain (coronal Region 2 sections), MALDI MSI Mean Conc. by brain region, NHP-2, Region 2, 3 sections, Fig. 1B): 610 ng/g | concentration at 4 h ([2]; brain (coronal Region 3 sections), MALDI MSI Mean Conc. by brain region, NHP-1, Region 3, 3 sections, Fig. 1B): 217 ng/g | concentration at 4 h ([2]; brain (coronal Region 3 sections), MALDI MSI Mean Conc. by brain region, NHP-2, Region 3, 3 sections, Fig. 1B): 822 ng/g | concentration at 4 h ([2]; brain (coronal Region 4 sections), MALDI MSI Mean Conc. by brain region, NHP-1, Region 4, 3 sections, Fig. 1B): 362 ng/g | concentration at 4 h ([2]; brain (coronal Region 4 sections), MALDI MSI Mean Conc. by brain region, NHP-2, Region 4, 3 sections, Fig. 1B): 781 ng/g | concentration at 4 h ([2]; brain blood vessel, Niraparib Mean Conc. in histological ROI, NHP-1, Blood Vessel, Fig. 1D): 779 ng/g | concentration at 4 h ([2]; brain blood vessel, Niraparib Mean Conc. in histological ROI, NHP-2, Blood Vessel, Fig. 1D): 1210 ng/g | concentration at 4 h ([2]; brain gray matter, Niraparib Mean Conc. in histological ROI, NHP-1, Gray Matter, Fig. 1D): 292 ng/g | concentration at 4 h ([2]; brain gray matter, Niraparib Mean Conc. in histological ROI, NHP-2, Gray Matter, Fig. 1D): 743 ng/g | concentration at 4 h ([2]; brain parenchyma, mean unbound niraparib concentration in the brain parenchyma, healthy rhesus macaques, estimated from MALDI MSI): ~15 ng/g | concentration at 4 h ([2]; brain ventricle, Niraparib Mean Conc. in histological ROI, NHP-1, Ventricle, Fig. 1D): 3360 ng/g | concentration at 4 h ([2]; brain ventricle, Niraparib Mean Conc. in histological ROI, NHP-2, Ventricle, Fig. 1D): 4830 ng/g | concentration at 4 h ([2]; brain white matter, Niraparib Mean Conc. in histological ROI, NHP-1, White Matter, Fig. 1D): 177 ng/g | concentration at 4 h ([2]; brain white matter, Niraparib Mean Conc. in histological ROI, NHP-2, White Matter, Fig. 1D): 350 ng/g | concentration at 2 h ([1]; female, NCr nude (CrTac:NCr-Foxn1nu), mouse, brain (sections), oral, 35 mg/kg, read-out: MALDI MSI Brain sections, mean (SD)): 519 ng/g | concentration at 2 h ([1]; female, NCr nude (CrTac:NCr-Foxn1nu), mouse, brain metastasis tumor tissue, oral, 35 mg/kg, all tumor-containing sections (n = 42) in all BM animals (n = 4), niraparib 35 mg/kg, read-out: MALDI MSI mean localized tumor concentration): ~1700 ng/g | concentration at 2 h ([1]; female, NCr nude (CrTac:NCr-Foxn1nu), mouse, brain tumor, oral, 35 mg/kg, read-out: MALDI MSI Brain tumors, mean (SD)): 2400 ng/g | concentration at 2 h ([1]; female, NCr nude (CrTac:NCr-Foxn1nu), mouse, brain ventricles, oral, 35 mg/kg, all ventricle-containing sections (n = 48) in all BM animals, niraparib 35 mg/kg, read-out: MALDI MSI mean concentration in the ventricles): ~1860 ng/g | concentration at 2 h ([1]; female, NCr nude (CrTac:NCr-Foxn1nu), mouse, brain, oral, 35 mg/kg, read-out: MALDI MSI Brain sections, mean (SD)): 487 ng/g | Kp at 2 h ([1]; female, NCr nude (CrTac:NCr-Foxn1nu), mouse, oral, 35 mg/kg, BM mice, mean brain tumor ROI total concentration by MALDI MSI versus terminal plasma total concentration): 0.945 | concentration at 2 h ([1]; female, NCr nude (CrTac:NCr-Foxn1nu), mouse, whole brain (sections), oral, 35 mg/kg, Brain Metastases, Mouse 1, Fig. 2B, read-out: MALDI MSI Mean Conc., whole brain, individual mouse): 430 ng/g | concentration at 2 h ([1]; female, NCr nude (CrTac:NCr-Foxn1nu), mouse, whole brain (sections), oral, 35 mg/kg, Brain Metastases, Mouse 2, Fig. 2B, read-out: MALDI MSI Mean Conc., whole brain, individual mouse): 640 ng/g | concentration at 2 h ([1]; female, NCr nude (CrTac:NCr-Foxn1nu), mouse, whole brain (sections), oral, 35 mg/kg, Brain Metastases, Mouse 3, Fig. 2B, read-out: MALDI MSI Mean Conc., whole brain, individual mouse): 540 ng/g | concentration at 2 h ([1]; female, NCr nude (CrTac:NCr-Foxn1nu), mouse, whole brain (sections), oral, 35 mg/kg, Brain Metastases, Mouse 4, Fig. 2B, read-out: MALDI MSI Mean Conc., whole brain, individual mouse): 340 ng/g | concentration at 2 h ([1]; female, NCr nude (CrTac:NCr-Foxn1nu), mouse, whole brain (sections), oral, 35 mg/kg, No Brain Metastases, Mouse 8, Fig. 2B, read-out: MALDI MSI Mean Conc., whole brain, individual mouse): 400 ng/g | concentration at 2 h ([1]; female, NCr nude (CrTac:NCr-Foxn1nu), mouse, whole brain (sections), oral, 35 mg/kg, No Brain Metastases, Mouse 9, Fig. 2B, read-out: MALDI MSI Mean Conc., whole brain, individual mouse): 560 ng/g | concentration at 2 h ([1]; female, NCr nude (CrTac:NCr-Foxn1nu), mouse, whole brain (sections), oral, 35 mg/kg, No Brain Metastases, Mouse 10, Fig. 2B, read-out: MALDI MSI Mean Conc., whole brain, individual mouse): 600 ng/g
Compound: NC(=O)c1cccc2cn(-c3ccc([C@@H]4CCCNC4)cc3)nc12 [Niraparib]
P-gp substrate status (human P-gp): substrates for P-gp | plasma time to peak drug concentration (Tmax) [3]: ≈ 4 h
